In data set [1] the test system is BV-2. Nature of the data set: Cytotoxicity against mouse BV-2 cells assessed as reduction cell viability at 10 uM after 24 hrs by MTT assay. It counts as cell-based. The note with it: bv-2, 24 h.
Data set [2] deals with BV-2. The data set can be described thus: Antiinflammatory activity against LPS-induced mouse BV-2 cells assessed NO production at 10 uM preincubated for 2 hrs followed by LPS-stimulation and measured after 24 hrs by Greiss reagent based assay relative to control. The note with it: time 26 hrs. The class given is functional.
The test system of data set [3] is BV-2. Nature of the data set: Antiinflammatory activity against LPS-induced mouse BV-2 cells assessed NO production at 1 uM preincubated for 2 hrs followed by LPS-stimulation and measured after 24 hrs by Greiss reagent based assay relative to control. It counts as functional. The settings on record: time 26 hrs.
Data set [4] concerns SH-SY5Y. Nature of the data set: Cytotoxicity against human SH-SY5Y cells assessed as reduction cell viability at 1 to 10 uM after 24 hrs by MTT assay. The class given is cell-based. The settings on record: dose 1-10 µM. (Tetrazolium dyes change colour on reduction, which living cells bring about.)
Data set [5] concerns SH-SY5Y. Nature of the data set: Neuroprotective activity in human SH-SY5Y cells assessed as reduction in amyloid beta (25 to 35)-induced cytotoxicity by measuring cell viability at 10 uM after 24 hrs by MTT assay relative to control. The class given is functional.
Data set [6] has as its system SH-SY5Y. The data set can be described thus: Neuroprotective activity in human SH-SY5Y cells assessed as reduction in amyloid beta (25 to 35)-induced cytotoxicity by measuring cell viability at 1 uM after 24 hrs by MTT assay relative to control. It counts as functional.
Data set [7] in a line: Cytotoxicity against mouse BV-2 cells assessed as cell viability at 10 uM after 24 hrs by MTT assay relative to control. It counts as cell-based. The settings on record: read-out: Activity.

In the case of `COc1cc(CC[C@@H](O)C[C@H](O)CCc2ccc(O)c(OC)c2)ccc1O`, the Activity result with BV-2 [1] is given as “Non-Toxic”; in the data set with BV-2 [2] it was 84.3%; with BV-2 [3], 101.2%.
As for `Oc1ccc(/C=C/c2cc(O)cc(O)c2)cc1` [RESVERATROL], the Activity in the data set on BV-2 [3] is 67.5%.
In the case of `COc1cc([C@@H]2O[C@@H](CC(=O)CCc3ccc(O)cc3)[C@@H]3[C@H]2[C@H](CC(=O)CCc2ccc(O)cc2)O[C@H]3c2ccc(O)cc2)ccc1O`, the Activity entry with BV-2 [1] is reported as “Non-Toxic”; in the data set on SH-SY5Y [4] it was “Non-Toxic”; in the data set with BV-2 [2] it was 86.8%; with BV-2 [3] it was 99.6%; with SH-SY5Y [5], 91.9%; with SH-SY5Y [6], 69.6%.
For `O=C(CCc1ccc(O)cc1)C[C@@H]1O[C@@H](c2ccc(O)cc2)[C@H]2[C@@H]1[C@H](c1ccc(O)cc1)O[C@H]2CC(=O)CCc1ccc(O)cc1`, in data set [7], the viability at 24 h, 10 µM was less than 70%. Moreover, the Activity with BV-2 [2] came out at 87.8%; in the data set on BV-2 [3], 100.9%; in the data set on SH-SY5Y [5], 70.9%; in the data set on SH-SY5Y [6], 70.7%.
Turning to `COc1cc(/C=C/C=C/C(=O)CCc2ccc(O)cc2)cc(OC)c1O`, the Activity entry is “Non-Toxic” in the data set on BV-2 [1]; “Non-Toxic” in the data set with SH-SY5Y [4]; 77.4% in the data set with BV-2 [2]; 96.8% in the data set with BV-2 [3]; 81.3% in the data set with SH-SY5Y [5]; 66.1% in the data set on SH-SY5Y [6].
Turning to `Oc1ccc(CC[C@@H](O)C[C@H](O)CCc2ccc(O)cc2)cc1` [(+)-HANNOKINOL], the Activity entry in the data set on BV-2 [1] is on record as “Non-Toxic”; in the data set with BV-2 [2], 94.8%; with BV-2 [3] it was 101.9%.
On the same counts, the results for `Oc1ccc2cc1Oc1ccc(cc1)CC[C@H](O)C[C@@H](O)CC2` (relative stereo) are “Non-Toxic”, 84.6% and 98.8%.
On the same counts, the results for `COc1cc(CC[C@@H](O)C[C@H](O)CCc2ccc(O)cc2)ccc1O` are “Non-Toxic”, 85.7% and 99.4%.
`O=C(O[C@@H]1Cc2c(O)cc(O)cc2O[C@@H]1c1cc(O)c(O)c(O)c1)c1cc(O)c(O)c(O)c1` [EPIGALOCATECHIN GALLATE]: the Activity in the data set on SH-SY5Y [5] is 80.8%.
As to `COc1cc([C@@H]2O[C@@H](CC(=O)CCc3ccc(O)cc3)[C@@H]3[C@H]2[C@H](CC(=O)CCc2ccc(O)cc2)O[C@H]3c2ccc(O)c(OC)c2)ccc1O`, the viability at 24 h, 10 µM in data set [7] was less than 70%. The Activity result in the data set with SH-SY5Y [4] was “Non-Toxic”; in the data set with BV-2 [2] it was 85%; with BV-2 [3], 101.4%; in the data set with SH-SY5Y [5], 76.3%; in the data set on SH-SY5Y [6], 69%.

(Values after ChEMBL document CHEMBL4673332, “Neuroprotective and Anti-inflammatory Ditetrahydrofuran-Containing Diarylheptanoids from Tacca chantrieri” (J Nat Prod, 2020).)
